Data on 33 compounds can be found in patent US20090325964A1, “Piperazine Metabotropic Glutamate Receptor 5 (MGLUR5) Negative Allosteric Modulators For Anxiety/Depression” (Wyeth, priority 2008, published 2009).

One experiment has as its target mGluR5 (Rattus norvegicus, UniProt P31424). Nature of the experiment: IC50 column under 'Biological Activity' (assay not identified in the shown text; not the binding Ki).
A further experiment deals with T1, rat mGluR5 receptor (Rattus norvegicus, UniProt P31424).
T1 construct: expressed in transfected cells; host or cells: HEK-293
As to the kind of experiment: [3H]-MPEP displacement binding assay, HEK-293 cell membranes expressing rat mGluR5. Conditions: [3H]-MPEP displacement, rat mGluR5; read-out: Median Ki. The method in brief:
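Membranes from HEK-293 cells expressing rat mGluR5 (12-25 μg protein), incubated 60 min at room temperature with 4 nM [3H]-MPEP in 50 mM Tris pH 7.5, then filtered. Nonspecific binding defined with 10 μM MPEP.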

Broadly, the IC50 is the midpoint of a concentration-inhibition curve. The low end stands for greater potency, the high end for weaker potency. A word on the Ki: it is a dissociation constant, usually derived from enzyme kinetics or from competition with a known ligand.

Chain of mGluR5 (P31424 21-1203): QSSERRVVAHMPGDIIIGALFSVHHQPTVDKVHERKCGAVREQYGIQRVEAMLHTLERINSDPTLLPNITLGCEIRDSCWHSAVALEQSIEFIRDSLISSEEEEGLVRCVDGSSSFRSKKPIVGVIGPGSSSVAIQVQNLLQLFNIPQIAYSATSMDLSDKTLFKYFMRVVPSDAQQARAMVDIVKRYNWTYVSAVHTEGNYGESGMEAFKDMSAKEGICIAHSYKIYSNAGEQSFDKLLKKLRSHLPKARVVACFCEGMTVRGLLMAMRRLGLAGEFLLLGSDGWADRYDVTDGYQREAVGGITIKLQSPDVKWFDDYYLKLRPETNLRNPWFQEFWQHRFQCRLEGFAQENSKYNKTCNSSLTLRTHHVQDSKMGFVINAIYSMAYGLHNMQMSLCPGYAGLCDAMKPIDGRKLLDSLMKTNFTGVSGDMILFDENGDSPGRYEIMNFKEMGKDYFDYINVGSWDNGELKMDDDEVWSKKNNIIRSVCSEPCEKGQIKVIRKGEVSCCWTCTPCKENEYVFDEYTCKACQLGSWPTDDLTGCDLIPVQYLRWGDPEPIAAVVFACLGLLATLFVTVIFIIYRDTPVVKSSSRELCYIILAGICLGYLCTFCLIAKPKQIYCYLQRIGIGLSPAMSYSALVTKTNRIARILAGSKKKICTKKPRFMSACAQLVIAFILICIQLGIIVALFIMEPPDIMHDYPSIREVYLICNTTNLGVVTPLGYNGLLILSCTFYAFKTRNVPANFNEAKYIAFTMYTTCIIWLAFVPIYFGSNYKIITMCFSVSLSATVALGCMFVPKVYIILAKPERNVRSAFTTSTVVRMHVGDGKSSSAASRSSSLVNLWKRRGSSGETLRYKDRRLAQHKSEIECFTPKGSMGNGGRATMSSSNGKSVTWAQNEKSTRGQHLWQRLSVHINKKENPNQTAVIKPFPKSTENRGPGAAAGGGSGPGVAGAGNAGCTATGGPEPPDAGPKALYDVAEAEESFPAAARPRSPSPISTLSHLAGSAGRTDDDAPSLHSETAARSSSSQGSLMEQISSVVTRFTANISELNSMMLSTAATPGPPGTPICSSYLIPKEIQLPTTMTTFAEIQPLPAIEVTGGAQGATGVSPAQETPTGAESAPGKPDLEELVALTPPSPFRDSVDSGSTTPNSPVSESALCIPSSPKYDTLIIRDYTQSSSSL
T1 sequence (P31424 21-1203): as above

The compound `COc1ccc(C(=O)N2CCN(c3ccc(C(C)=O)cc3)CC2)cc1C#Cc1ccccn1` [Compound 237, 1-(4-{4-[4-methoxy-3-(pyridin-2-ylethynyl)benzoyl]piperazin-1-yl}phenyl)ethanone] showed an IC50 at mGluR5 of 0.119 µM. Further, the Ki on rat mGluR5 receptor was 0.021 µM.
Taken in the same sequence, the figures for `COc1ccc(C(=O)N2CCN(c3nccnc3Cl)CC2)cc1C#Cc1ccccn1` [Compound 304, 2-chloro-3-{4-[4-methoxy-3-(pyridin-2-ylethynyl)benzoyl]piperazin-1-yl}pyrazine] were 0.408 µM and 0.052 µM.
On the same counts, the results for `COc1ccc(C(=O)N2CCN(c3cccc(Cl)c3)C(=O)C2)cc1C#Cc1ccccn1` [Compound 327, 1-(3-chlorophenyl)-4-{[4-methoxy-3-(pyridin-2-ylethynyl)phenyl]carbonyl}piperazin-2-one] are 0.049 µM and 0.04 µM.
On the same counts, the results for `Cc1ccc(C(=O)N2CCN(c3ncccn3)CC2)cc1C#Cc1ccccn1` [Compound 309, 2-{4-[4-methyl-3-(pyridin-2-ylethynyl)benzoyl]piperazin-1-yl}pyrimidine] are 0.193 µM and 0.034 µM.
With `COc1ccc(C(=O)N2CCN(c3cccc(Cl)c3)CC2)cc1C#Cc1ccccn1` [Compound 189, 1-(3-chlorophenyl)-4-[4-methoxy-3-(pyridin-2-ylethynyl)benzoyl]piperazine], the IC50 at mGluR5 worked out at 0.148 µM. Also, at rat mGluR5 receptor, the Ki worked out at 0.004 µM.
For `COc1ccc(C(=O)N2CCN(c3ccncc3)CC2)cc1C#Cc1ccccn1` [Compound 236, 1-[4-methoxy-3-(pyridin-2-ylethynyl)benzoyl]-4-pyridin-4-ylpiperazine], the IC50 at mGluR5 is more than 1 µM. Moreover, the Ki at rat mGluR5 receptor came to 0.078 µM.
Turning to `COc1ccnc(N2CCN(C(=O)c3ccc(OC)c(C#Cc4ccccn4)c3)CC2)n1` [Compound 200, 4-methoxy-2-{4-[4-methoxy-3-(pyridin-2-ylethynyl)benzoyl]piperazin-1-yl}pyrimidine], the IC50 at mGluR5 is 0.024 µM. Further, the Ki at rat mGluR5 receptor worked out at 0.021 µM.
On the same counts, the results for `COc1ccc(C(=O)N2CCN(c3ncccc3Cl)CC2)cc1C#Cc1ccccn1` [Compound 186, 1-(3-chloropyridin-2-yl)-4-[4-methoxy-3-(pyridin-2-ylethynyl)benzoyl]piperazine] are 0.037 µM and 0.019 µM.
Take `COc1ccc(C(=O)N2CCN(c3cccc(C)c3)CC2)cc1C#Cc1ccccn1` [Compound 196, 1-[4-methoxy-3-(pyridin-2-ylethynyl)benzoyl]-4-(3-methylphenyl)piperazine]: on mGluR5, the IC50 is 0.065 µM. Also, at rat mGluR5 receptor, the Ki turned out to be 0.016 µM.
Taken in the same sequence, the figures for `COc1ccc(C(=O)N2CCN(c3ncc(Br)c(OC)n3)CC2)cc1C#Cc1ccccn1` [Compound 197, 5-bromo-4-methoxy-2-{4-[4-methoxy-3-(pyridin-2-ylethynyl)benzoyl]piperazin-1-yl}pyrimidine] were 0.056 µM and 0.012 µM.
Taken in the same sequence, the figures for `COc1cnc(N2CCN(C(=O)c3ccc(OC)c(C#Cc4ccccn4)c3)CC2)nc1` [Compound 299, 5-methoxy-2-{4-[4-methoxy-3-(pyridin-2-ylethynyl)benzoyl]piperazin-1-yl}pyrimidine] were 0.119 µM and 0.025 µM.
The compound `COc1ccc(C(=O)N2CCN(c3nc4ccccc4o3)CC2)cc1C#Cc1ccccn1` [Compound 257, 2-{4-[4-methoxy-3-(pyridin-2-ylethynyl)benzoyl]piperazin-1-yl}-1,3-benzoxazole] returned a half-maximal inhibitory concentration (IC50) at mGluR5 of 0.11 µM. The Ki on rat mGluR5 receptor turned out to be 0.038 µM.
On the same counts, the results for `COc1ccc(C(=O)N2CCN(c3cncc(C)n3)CC2)cc1C#Cc1ccccn1` [Compound 204, 2-{4-[4-methoxy-3-(pyridin-2-ylethynyl)benzoyl]piperazin-1-yl}-6-methylpyrazine] are 0.132 µM and 0.029 µM.
`COc1ccc(C(=O)N2CCN(c3ccccc3C)CC2)cc1C#Cc1ccccn1` [Compound 221, 1-[4-methoxy-3-(pyridin-2-ylethynyl)benzoyl]-4-(2-methylphenyl)piperazine] came in with a half-maximal inhibitory concentration (IC50) on mGluR5 of more than 1 µM. Further, the Ki on rat mGluR5 receptor came out at 0.1 µM.
Compound `COc1ccc(C(=O)N2CCN(c3ncc(C#N)c(N)n3)CC2)cc1C#Cc1ccccn1` [Compound 293, 4-Amino-2-(4-(4-methoxy-3-(pyridin-2-ylethynyl)benzoyl)piperazin-1-yl)pyrimidine-5-carbonitrile] came in with an IC50 at mGluR5 of more than 1 µM. Further, the Ki on rat mGluR5 receptor is 0.058 µM.
In the case of `COc1ccc(C(=O)N2CCN(Cc3ccccc3F)CC2)cc1C#Cc1ccccn1` [Compound 266, 1-(2-fluorobenzyl)-4-[4-methoxy-3-(pyridin-2-ylethynyl)benzoyl]piperazine], on mGluR5, the IC50 was more than 1 µM. The Ki at rat mGluR5 receptor stood at 0.033 µM.
Compound `COc1ccc(C(=O)N2CCN(Cc3ccc(Cl)cc3)CC2)cc1C#Cc1ccccn1` [Compound 275, 1-(4-chlorobenzyl)-4-[4-methoxy-3-(pyridin-2-ylethynyl)benzoyl]piperazine] showed a 50% inhibitory concentration (IC50) on mGluR5 of 0.144 µM. Besides, the Ki on rat mGluR5 receptor is 0.017 µM.
On the same counts, the results for `COc1ccc(C(=O)N2CCN(S(=O)(=O)c3ccc(Cl)s3)CC2)cc1C#Cc1ccccn1` [Compound 225, 1-[(5-chloro-2-thienyl)sulfonyl]-4-[4-methoxy-3-(pyridin-2-ylethynyl)benzoyl]piperazine] are more than 1 µM and 0.051 µM.
The compound `COc1ccnc(N2CCN(C(=O)c3ccc(F)c(C#Cc4ccccn4)c3)CC2)n1` [Compound 317, 2-{4-[4-fluoro-3-(pyridin-2-ylethynyl)benzoyl]piperazin-1-yl}-4-methoxypyrimidine] gave a concentration for half-maximal inhibition (IC50) at mGluR5 of 0.03 µM. Further, the Ki on rat mGluR5 receptor amounted to 0.02 µM.
In turn, `COc1ccc(C(=O)N2CCN(c3nsc4ccccc34)CC2)cc1C#Cc1ccccn1` [Compound 201, 3-{4-[4-methoxy-3-(pyridin-2-ylethynyl)benzoyl]piperazin-1-yl}-1,2-benzisothiazole] gave an IC50 on mGluR5 of 0.024 µM. Also, the inhibition constant Ki at rat mGluR5 receptor was determined as 0.003 µM.
Compound `COc1ccc(C(=O)N2CCN(c3cc(C)nc(C(C)C)n3)CC2)cc1C#Cc1ccccn1` [Compound 220, 2-isopropyl-4-{4-[4-methoxy-3-(pyridin-2-ylethynyl)benzoyl]piperazin-1-yl}-6-methylpyrimidine] had an IC50 on mGluR5 of more than 1 µM. The inhibition constant (Ki) at rat mGluR5 receptor was 0.089 µM.
On the same counts, the results for `COc1ccc(N2CCN(C(=O)c3ccc(OC)c(C#Cc4ccccn4)c3)CC2)cc1` [Compound 233, 1-(4-methoxyphenyl)-4-[4-methoxy-3-(pyridin-2-ylethynyl)benzoyl]piperazine] are more than 1 µM and 0.066 µM.
Take `COc1ccc(C(=O)N2CCN(c3ccnc(SC)n3)CC2)cc1C#Cc1ccccn1` [Compound 296, 4-{4-[4-methoxy-3-(pyridin-2-ylethynyl)benzoyl]piperazin-1-yl}-2-(methylthio)pyrimidine]: at mGluR5, the half-maximal inhibitory concentration (IC50) was more than 1 µM. At rat mGluR5 receptor, the Ki turned out to be 0.022 µM.
Taken in the same sequence, the figures for `O=C(c1ccc(F)c(C#Cc2ccccn2)c1)N1CCN(c2ccccn2)CC1` [Compound 313, 1-[4-fluoro-3-(pyridin-2-ylethynyl)benzoyl]-4-pyridin-2-ylpiperazine] were 0.062 µM and 0.023 µM.
On to `COc1ccc(C(=O)N2CCN(c3ncc(Cl)cc3Cl)CC2)cc1C#Cc1ccccn1` [Compound 185, 1-(3,5-dichloropyridin-2-yl)-4-[4-methoxy-3-(pyridin-2-ylethynyl)benzoyl]piperazine], for which, on mGluR5, the IC50 worked out at 0.043 µM. In addition, the inhibition constant Ki at rat mGluR5 receptor was found to be 0.047 µM.
Taken in the same sequence, the figures for `COc1ccc(C(=O)N2CCN(c3ccc(Cl)cc3)CC2)cc1C#Cc1ccccn1` [Compound 217, 1-(4-chlorophenyl)-4-[4-methoxy-3-(pyridin-2-ylethynyl)benzoyl]piperazine] were 0.336 µM and 0.027 µM.
Taken in the same sequence, the figures for `COc1ccc(C(=O)N2CCN(c3cccc(C)c3C)CC2)cc1C#Cc1ccccn1` [Compound 219, 1-(2,3-dimethylphenyl)-4-[4-methoxy-3-(pyridin-2-ylethynyl)benzoyl]piperazine] were more than 1 µM and 0.168 µM.
On the same counts, the results for `COc1ccc(C(=O)N2C[C@H]3C[C@H]2CN3c2cccc(F)c2)cc1C#Cc1ccccn1` [Compound 207, (1R,4S)-2-(3-fluorophenyl)-5-[4-methoxy-3-(pyridin-2-ylethynyl)benzoyl]-2,5-diazabicyclo[2.2.1]heptane] are 0.306 µM and 0.019 µM.
As to `COc1ccc(C(=O)N2CCN(c3ccccc3Cl)C(=O)C2)cc1C#Cc1ccccn1` [Compound 328, 1-(2-chlorophenyl)-4-{[4-methoxy-3-(pyridin-2-ylethynyl)phenyl]carbonyl}piperazin-2-one], on mGluR5, the IC50 turned out to be 0.05 µM. For the same compound, the inhibition constant (Ki) at rat mGluR5 receptor turned out to be 0.096 µM.
Taken in the same sequence, the figures for `COc1ccc(C(=O)N2CCN(c3ccccc3)C(=O)C2)cc1C#Cc1ccccn1` [Compound 329, 4-{[4-methoxy-3-(pyridin-2-ylethynyl)phenyl]carbonyl}-1-phenylpiperazin-2-one] were 0.118 µM and 0.084 µM.
For `COc1ccc(C(=O)N2CCN(c3ccc(C#N)cn3)CC2)cc1C#Cc1ccccn1` [Compound 252, 6-{4-[4-methoxy-3-(pyridin-2-ylethynyl)benzoyl]piperazin-1-yl}nicotinonitrile], the IC50 on mGluR5 was determined as 0.192 µM. Besides, the Ki on rat mGluR5 receptor came to 0.033 µM.
At mGluR5, `COc1ccc(C(=O)N2CCN(C(=O)c3ccco3)CC2)cc1C#Cc1ccccn1` [Compound 258, 1-(2-furoyl)-4-[4-methoxy-3-(pyridin-2-ylethynyl)benzoyl]piperazine] came in with a half-maximal inhibitory concentration (IC50) of 0.095 µM. Moreover, the Ki at rat mGluR5 receptor was found to be 0.041 µM.
Turning to `CCOc1ccc(C(=O)N2CCN(c3noc4ccccc34)CC2)cc1C#Cc1ccccn1` [Compound 322, 3-{4-[4-ethoxy-3-(pyridin-2-ylethynyl)benzoyl]piperazin-1-yl}-1,2-benzisoxazole], the IC50 at mGluR5 amounted to 0.035 µM. Further, the Ki at rat mGluR5 receptor amounted to 0.006 µM.
